Results as given in the supplement of paper PMC8960247.
± gives the standard error.

Legend:
621-103 (TSC2-rescued) = assay: relative viability vs DMSO; higher = less cytotoxic; settings: serum: 10% FBS, 72 h
621-102 (TSC2-deficient) [1] = assay: as above; settings: serum: 10% FBS, 72 h
UMB1949 (TSC2-deficient) = assay: relative viability vs DMSO (fraction); higher = less cytotoxic; settings: serum: 0.1% FBS, 72 h;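 further: renal angiomyolipoma cell lines screened in 384-well plates, viability normalized per plate to DMSO-treated cells, each plate carrying 50 nM rapamycin and 1 µM staurosporine controls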
621-102 (TSC2-deficient) [2] = assay: as above; settings: serum: 0.1% FBS, 72 h

| SMILES | relative viability (621-103 (TSC2-rescued); 0.0001 µM) | relative viability (621-103 (TSC2-rescued); 0.001 µM) | relative viability (621-103 (TSC2-rescued); 0.01 µM) | relative viability (621-103 (TSC2-rescued); 0.1 µM) | relative viability (621-103 (TSC2-rescued); 1 µM) | relative viability (621-103 (TSC2-rescued); 10 µM) | relative viability (621-102 (TSC2-deficient) [1]; 0.0001 µM) | relative viability (621-102 (TSC2-deficient) [1]; 0.001 µM) | relative viability (621-102 (TSC2-deficient) [1]; 0.01 µM) | relative viability (621-102 (TSC2-deficient) [1]; 0.1 µM) | relative viability (621-102 (TSC2-deficient) [1]; 1 µM) | relative viability (621-102 (TSC2-deficient) [1]; 10 µM) | relative viability (UMB1949 (TSC2-deficient); 0.0128 nM) | relative viability (UMB1949 (TSC2-deficient); 0.064 nM) | relative viability (UMB1949 (TSC2-deficient); 0.32 nM) | relative viability (UMB1949 (TSC2-deficient); 1.6 nM) | relative viability (UMB1949 (TSC2-deficient); 8 nM) | relative viability (UMB1949 (TSC2-deficient); 40 nM) | relative viability (UMB1949 (TSC2-deficient); 200 nM) | relative viability (UMB1949 (TSC2-deficient); 1000 nM) | relative viability (UMB1949 (TSC2-deficient); 5000 nM) | relative viability (621-102 (TSC2-deficient) [2]; 0.0128 nM) | relative viability (621-102 (TSC2-deficient) [2]; 0.064 nM) | relative viability (621-102 (TSC2-deficient) [2]; 0.32 nM) | relative viability (621-102 (TSC2-deficient) [2]; 1.6 nM) | relative viability (621-102 (TSC2-deficient) [2]; 8 nM) | relative viability (621-102 (TSC2-deficient) [2]; 40 nM) | relative viability (621-102 (TSC2-deficient) [2]; 200 nM) | relative viability (621-102 (TSC2-deficient) [2]; 1000 nM) | relative viability (621-102 (TSC2-deficient) [2]; 5000 nM) |
| --- | --- | --- | --- | --- | --- | --- | --- | --- | --- | --- | --- | --- | --- | --- | --- | --- | --- | --- | --- | --- | --- | --- | --- | --- | --- | --- | --- | --- | --- | --- |
| Cc1cc(Nc2cc(N3CCN(C)CC3)nc(Sc3ccc(NC(=O)C4CC4)cc3)n2)n[nH]1 [VX-680 (MK-0457)] | 99.1 ± 1.1% | 103 ± 1.9% | 100 ± 1.9% | 94.8 ± 6.2% | 78.2 ± 2% | 20.4 ± 0.69% | 101 ± 4.7% | 90.4 ± 2.4% | 98.8 ± 1.7% | 81.4 ± 0.96% | 76 ± 2.1% | 47.8 ± 0.98% | 0.947 | 0.818 | 0.872 | 0.0803 | 0.0315 | 0.0297 | 0.0316 | 0.0244 | 0.0016 | 1.08 | 1 | 0.776 | 0.176 | 0.0382 | 0.0452 | 0.0422 | 0.0108 | 0.00299 |
| c1cncc(CN2CCC(n3ncc4c(N5CCOCC5)nc(-c5ccc6[nH]ccc6c5)nc43)CC2)c1 [WAY-600] | 99.7 ± 2.6% | 97.8 ± 4.8% | 103 ± 3.9% | 98.1 ± 1.8% | 54.5 ± 2.2% | 7.78 ± 0.25% | 89.809 ± 0.075% | 104 ± 2.2% | 99.7 ± 2.1% | 100 ± 1.8% | 82.5 ± 1% | 2.21 ± 0.054% | 0.882 | 0.972 | 1.04 | 0.972 | 1.02 | 0.933 | 0.892 | 0.354 | 0.00636 | 1.07 | 1.25 | 1.04 | 1.18 | 1.21 | 1.19 | 0.798 | 0.345 | 0.00768 |
| CCC[C@H](NC(=O)/C(C#N)=C/c1cccc(Br)n1)c1ccccc1 [WP1130] | 99.84 ± 0.79% | 111 ± 2.8% | 109 ± 2.5% | 105 ± 1.6% | 65.6 ± 11% | 11.4 ± 1.6% | 104 ± 6% | 98.3 ± 8.2% | 99 ± 1.9% | 100 ± 3.1% | 42.6 ± 3.9% | 12.9 ± 0.62% | 1.14 | 0.962 | 1.13 | 1.04 | 1.02 | 1.14 | 0.0225 | 0.00218 | 0.00472 | 1.37 | 1.16 | 1.59 | 1.27 | 1.4 | 1.62 | 1.11 | 0.0118 | 0.0115 |
| COCC[n+]1c2c(n(Cc3cnccn3)c1C)C(=O)c1ccccc1C2=O [YM155] | 103 ± 1.1% | 97.14 ± 0.26% | 6.98 ± 0.72% | 3.13 ± 0.25% | 1.38 ± 0.11% | 1.32 ± 0.092% | 119 ± 4.4% | 123 ± 2.9% | 85.19 ± 0.73% | 14.7 ± 0.34% | 2.3 ± 0.11% | 1.07 ± 0.06% | 0.913 | 0.906 | 0.926 | 0.0628 | 0.00285 | 0.00186 | 0.00176 | 0.000862 | 0.000862 | 1.26 | 1.18 | 1.05 | 1.14 | 1.01 | 0.797 | 0.0467 | 0.0022 | 0.000631 |
